Literature values as cited in patent US20030073069A1, “Drug rescue by redesign of ADMET/PK properties” (priority 2001, published 2003).

System: P450
Settings: induction of a P450

Structure (SMILES) | No. of currently known drug interactions that involve the compound, Induction
CC(=O)Nc1ccc(O)cc1 [acetaminophen] | 4
C[C@H]1C[C@H]2[C@@H]3CCC4=CC(=O)C=C[C@]4(C)[C@@]3(F)[C@@H](O)C[C@]2(C)[C@@]1(O)C(=O)CO [betamethasone] | 15
O=C1CC2(CCCC2)CC(=O)N1CCCCN1CCN(c2ncccn2)CC1 [buspirone] | 2
C[C@]12CCC(=O)C=C1CC[C@@H]1[C@@H]2C(=O)C[C@@]2(C)[C@H]1CC[C@]2(O)C(=O)CO [cortisone] | 15
CC(C)Nc1cccnc1N1CCN(C(=O)c2cc3cc(NS(C)(=O)=O)ccc3[nH]2)CC1 [delavirdine] | 2
COc1ccc2c(c1)[C@]13CCCC[C@@H]1[C@H](C2)N(C)CC3 [detromethorphan] | 1
C[C@@H]1C[C@H]2[C@@H]3CCC4=CC(=O)C=C[C@]4(C)[C@@]3(F)[C@@H](O)C[C@]2(C)[C@@]1(O)C(=O)CO [dexamethasone] | 14
CC(C)N(CCC(C(N)=O)(c1ccccc1)c1ccccn1)C(C)C (stereo not drawn) [disopyramide] | 3
C[C@H]1c2cccc(O)c2C(=O)C2=C(O)[C@]3(O)C(=O)C(C(N)=O)=C(O)[C@@H](N(C)C)[C@@H]3[C@@H](O)[C@@H]21 [doxycycline] | 3
C[C@]12CCC(=O)C=C1CC[C@H]1[C@@H]3CC[C@](O)(C(=O)CO)[C@@]3(C)C[C@H](O)[C@@]12F [fludrocortisone] | 14
O=C(CCCN1CCC(O)(c2ccc(Cl)cc2)CC1)c1ccc(F)cc1 [haloperidol] | 3
CCC(C)n1ncn(-c2ccc(N3CCN(c4ccc(OCC5COC(Cn6cncn6)(c6ccc(Cl)cc6Cl)O5)cc4)CC3)cc2)c1=O (stereo not drawn) [itraconazole] | 5
CC(=O)N1CCN(c2ccc(OCC3COC(Cn4ccnc4)(c4ccc(Cl)cc4Cl)O3)cc2)CC1 (stereo not drawn) [ketoconazole] | 2
CCC(=O)C(CC(C)N(C)C)(c1ccccc1)c1ccccc1 (stereo not drawn) [methadone] | 8
Clc1ccc(COC(Cn2ccnc2)c2ccc(Cl)cc2Cl)c(Cl)c1 (stereo not drawn) [miconazole] | 2
Cc1c(O)cccc1C(=O)N[C@@H](CSc1ccccc1)[C@H](O)CN1C[C@H]2CCCC[C@H]2C[C@H]1C(=O)NC(C)(C)C [nelfinavir] | 2
CCC1(c2ccccc2)C(=O)NC(=O)NC1=O [phenobarbital] | 1
C=C[C@H]1C[N@@]2CC[C@H]1C[C@H]2[C@H](O)c1ccnc2ccc(OC)cc12 [quinine] | 2
CC(C)c1nc(CN(C)C(=O)N[C@H](C(=O)N[C@@H](Cc2ccccc2)C[C@H](O)[C@H](Cc2ccccc2)NC(=O)OCc2cncs2)C(C)C)cs1 [ritonavir] | 3

System: P450
Settings: not given

Structure (SMILES) | No. of currently known drug interactions that involve the compound, Inhibition
CN1C[C@H](C(=O)N[C@]2(C)O[C@@]3(O)[C@@H]4CCCN4C(=O)[C@H](Cc4ccccc4)N3C2=O)C[C@@H]2c3cccc4[nH]cc(c34)C[C@H]21 [dihydroergotamine] | 7
CN1C[C@H](C(=O)N[C@]2(C)O[C@@]3(O)[C@@H]4CCCN4C(=O)[C@H](Cc4ccccc4)N3C2=O)C=C2c3cccc4[nH]cc(c34)C[C@H]21 [ergotamine] | 7
O=C1CN=C(c2ccccc2)c2cc(Cl)ccc2N1CC1CC1 [prazapam] | 2
CCC(=O)O[C@](Cc1ccccc1)(c1ccccc1)[C@H](C)CN(C)C [propoxyphene] | 1

Same assay, conditions: inhibition of a P450

Structure (SMILES) | No. of currently known drug interactions that involve the compound, Inhibition
CC(=O)CC(c1ccc([N+](=O)[O-])cc1)c1c(O)c2ccccc2oc1=O (stereo not drawn) [acenocoumarol] | 1
CC(=O)c1ccc2c(c1)N(CCCN1CCN(CCO)CC1)c1ccccc1S2 [acetophenazine] | 1
Clc1ccc2c(c1)C(N1CCNCC1)=Nc1ccccc1O2 [amoxapine] | 3
COc1ccc(CCN2CCC(Nc3nc4ccccc4n3Cc3ccc(F)cc3)CC2)cc1 [astemizole] | 10
CC(C)COCC(CN(Cc1ccccc1)c1ccccc1)N1CCCC1 (stereo not drawn) [bepridil] | 1
COCc1c(C(C)C)nc(C(C)C)c(/C=C/[C@@H](O)C[C@@H](O)CC(=O)O)c1-c1ccc(F)cc1 [cerivastatin] | 5
CCN(CC)CCCC(C)Nc1ccnc2cc(Cl)ccc12 (stereo not drawn) [chloroquine] | 1
CN(C)CCCN1c2ccccc2Sc2ccc(Cl)cc21 [chlorpromazine] | 1
COc1cc(N)c(Cl)cc1C(=O)NC1CCN(CCCOc2ccc(F)cc2)CC1OC (stereo not drawn) [cisapride] | 15
COc1ccc(C(=O)Nc2ccccc2CCC2CCCCN2C)cc1 (stereo not drawn) [encainide] | 2
O=C(NCC1CCCCN1)c1cc(OCC(F)(F)F)ccc1OCC(F)(F)F (stereo not drawn) [flecainide] | 2
OCCN1CCN(CCCN2c3ccccc3Sc3ccc(C(F)(F)F)cc32)CC1 [fluphenazine] | 1
CC(C)n1c(/C=C/C(O)CC(O)CC(=O)O)c(-c2ccc(F)cc2)c2ccccc21 (stereo not drawn) [fluvastatin] | 1
CC[C@H](C)C(=O)O[C@H]1C[C@@H](C)C=C2C=C[C@H](C)[C@H](CC[C@@H]3C[C@@H](O)CC(=O)O3)[C@H]21 [lovastatin] | 5
CN1CCCCC1CCN1c2ccccc2Sc2ccc([S+](C)[O-])cc21 (stereo not drawn) [mesoridazine] | 1
COc1ccc2c(c1)N(C[C@H](C)CN(C)C)c1ccccc1S2 [methotrimeprazine] | 1
COc1ccc2[nH]c([S+]([O-])Cc3ncc(C)c(OC)c3C)nc2c1 (stereo not drawn) [omeprazole] | 1
OCCN1CCN(CCCN2c3ccccc3Sc3ccc(Cl)cc32)CC1 [perphenazine] | 1
CCC(c1ccccc1)c1c(O)c2ccccc2oc1=O (stereo not drawn) [phenprocoumon] | 1

Structure (SMILES) | No. of currently known drug interactions that involve the compound, Inhibition
O=c1[nH]c2ccccc2n1C1CCN(CCCC(c2ccc(F)cc2)c2ccc(F)cc2)CC1 [pimozide] | 3
CN1C(C(=O)Nc2ccccn2)=C(O)c2ccccc2S1(=O)=O [piroxicam] | 1
CC[C@H](C)C(=O)O[C@H]1C[C@H](O)C=C2C=C[C@H](C)[C@H](CC[C@@H](O)C[C@@H](O)CC(=O)O)[C@H]21 [pravastatin] | 1
CN(C)CCCN1c2ccccc2Sc2ccccc21 [promazine] | 1
CC(CN1c2ccccc2Sc2ccccc21)N(C)C (stereo not drawn) [promethazine] | 1
CCC(=O)c1ccc2c(c1)N(CC(C)N(C)C)c1ccccc1S2 (stereo not drawn) [propiomazine] | 1
CNCCCC1c2ccccc2C=Cc2ccccc21 [protriptyline] | 3
CO[C@H]1/C=C/O[C@@]2(C)Oc3c(C)c(O)c4c(c3C2=O)C2=NC3(CCN(CC(C)C)CC3)NC2=C(NC(=O)/C(C)=C\C=C\[C@H](C)[C@H](O)[C@@H](C)[C@@H](O)[C@@H](C)[C@H](OC(C)=O)[C@@H]1C)C4=O [rifabutin] | 6
CO[C@H]1/C=C/O[C@@]2(C)Oc3c(C)c(O)c4c(O)c(c(/C=N/N5CCN(C6CCCC6)CC5)c(O)c4c3C2=O)NC(=O)/C(C)=C\C=C\[C@H](C)[C@H](O)[C@@H](C)[C@@H](O)[C@@H](C)[C@H](OC(C)=O)[C@@H]1C [rifapentine] | 2
CC(C)(C)NC(=O)[C@@H]1C[C@@H]2CCCC[C@@H]2CN1C[C@@H](O)[C@H](Cc1ccccc1)NC(=O)[C@H](CC(N)=O)NC(=O)c1ccc2ccccc2n1 [saquinavir] | 2
CCSc1ccc2c(c1)N(CCCN1CCN(C)CC1)c1ccccc1S2 [thiethylperazine] | 1
CC(C)(C)NC[C@H](O)COc1nsnc1N1CCOCC1 [timolol] | 1
CCCCNC(=O)NS(=O)(=O)c1ccc(C)cc1 [tolbutamide] | 1
CN1CCN(CCCN2c3ccccc3Sc3ccc(C(F)(F)F)cc32)CC1 [trifluoperazine] | 1
CN(C)CCCN1c2ccccc2Sc2ccc(C(F)(F)F)cc21 [triflupromazine] | 1
CCCC(CCC)C(=O)O [valproic acid] | 1
CC[C@]1(O)C[C@@H]2CN(CCc3c([nH]c4ccccc34)[C@@](C(=O)OC)(c3cc4c(cc3OC)N(C)[C@H]3[C@@](O)(C(=O)OC)[C@H](OC(C)=O)[C@]5(CC)C=CCN6CC[C@]43[C@@H]65)C2)C1 [vinblastine] | 4
CC[C@]1(O)C[C@H]2CN(CCc3c([nH]c4ccccc34)[C@@](C(=O)OC)(c3cc4c(cc3OC)N(C=O)[C@H]3[C@@](O)(C(=O)OC)[C@H](OC(C)=O)[C@]5(CC)C=CCN6CC[C@]43[C@@H]65)C2)C1 [vincristine] | 4
